For the test, the target named is p97 ATPase WT (Homo sapiens (Human), UniProt P55072). Briefly: p97 ADP-Glo assay. The format is biochemical. Particulars: Table 3. The text has this: ADP-Glo™ (Promega Corp.) is a bioluminescent, homogeneous assay that measures ADP formed from a biochemical reactions. Because of its high sensitivity, the assay is suitable for monitoring enzyme activities at very early substrate conversions requiring very low amount of enzymes.
The ADP-Glo assay can be conducted as described in Chou, T.-F.; Bulfer, S. L.; Weihl, C.
For orientation: ADP-Glo first removes unused ATP, then detects ADP through luciferase.

Chain of p97 ATPase WT (P55072 whole entry): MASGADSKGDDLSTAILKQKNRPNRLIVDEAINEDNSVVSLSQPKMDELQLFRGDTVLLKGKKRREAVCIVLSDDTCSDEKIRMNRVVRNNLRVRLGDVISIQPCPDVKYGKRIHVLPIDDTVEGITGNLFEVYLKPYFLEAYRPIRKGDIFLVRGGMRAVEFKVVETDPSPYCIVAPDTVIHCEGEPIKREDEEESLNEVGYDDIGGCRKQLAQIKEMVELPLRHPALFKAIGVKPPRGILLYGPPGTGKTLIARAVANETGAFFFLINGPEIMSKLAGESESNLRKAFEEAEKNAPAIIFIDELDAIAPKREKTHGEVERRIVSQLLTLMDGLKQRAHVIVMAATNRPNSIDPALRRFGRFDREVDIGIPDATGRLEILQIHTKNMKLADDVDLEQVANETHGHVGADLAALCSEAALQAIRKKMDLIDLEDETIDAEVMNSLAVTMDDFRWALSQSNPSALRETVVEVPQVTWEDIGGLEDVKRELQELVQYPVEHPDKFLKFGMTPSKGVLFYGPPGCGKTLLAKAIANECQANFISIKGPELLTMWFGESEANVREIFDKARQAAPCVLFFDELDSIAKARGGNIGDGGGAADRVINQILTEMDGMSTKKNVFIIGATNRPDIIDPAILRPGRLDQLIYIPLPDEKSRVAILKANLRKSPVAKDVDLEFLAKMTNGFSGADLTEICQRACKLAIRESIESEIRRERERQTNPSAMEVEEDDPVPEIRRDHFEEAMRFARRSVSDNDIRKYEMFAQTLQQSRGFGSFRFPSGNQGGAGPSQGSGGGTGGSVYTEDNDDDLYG

Take `CC(C)N1CCC(NC2CCN(c3cccc(-c4cc5cc(C#N)ccc5[nH]4)c3)CC2)CC1`: the IC50 (commonly the midpoint of a concentration-inhibition curve) worked out at 6.2 µM.

Values taken from patent US12559480B2, “Methods of treatment using phenyl indole allosteric inhibitors of P97 ATPase” (University of Pittsburgh—Of the Commonwealth System of …, priority 2015, dated 2026).
